Results on one compound are retold here after article PMC4841555, “Optimization of the All-D Peptide D3 for Aβ Oligomer Elimination” (PLoS ONE, 2016).

The structures appear in SMILES notation. Non-standard residues stand in square brackets, D forms with d. Residues, ends and D or L forms follow the SMILES beside them.

One series relates to PC12 cells. In words: MTT cell viability assay. Format: cell-based, rat. The conditions noted are these: 5 μM peptide without Aβ, 24 h. (Tetrazolium dyes change colour on reduction, which living cells bring about.)
Series [1] concerns the target T1, Aβ(1–42) (Homo sapiens, UniProt P05067).
T1 construct: Aβ(1–42), N-terminally biotinylated Aβ(1–42) and FITC-Aβ(1–42) were purchased from Bachem; purchased Bachem (Heidelberg, Germany)
In words: Thioflavin T (ThT) fibril formation assay. Type of series: biochemical. The conditions noted are these: pH 7.4, 20 μM Aβ(1–42), 20 μM peptide (method: 31 μg/ml), 20 μM ThT, 10 mM sodium phosphate pH 7.4, 37°C, compared after 5 h with Aβ(1–42)-only control; read-out: inhibition of Aβ(1–42) fibril formation (ThT fluorescence). As to the method: 20 μM Aβ(1–42) was mixed with 20 μM Thioflavin T (ThT) and 31 μg/ml DB3 or DB3DB3 in 10 mM sodium phosphate buffer, pH 7.4. The assay was performed using a non-binding 96 well plate (Greiner Bio-One, Frickenhausen, Germany). ThT fluorescence was measured every 15 min at λex = 440 nm and λem = 490 nm in a temperature-controlled plate reader (Polarstar Optima, BMG, Offenburg, Germany) at 37°C with 1 min agitation before every measurement. Each value was background corrected using the ThT fluorescence of a peptide solution without Aβ(1–42). To investigate the influence of DB1 to DB5 on Aβ fibril formation, a Thioflavin T (ThT) assay was performed. In an aqueous environment the benzothiazole dye has a low fluorescence. […] The emission at 490 nm is directly proportional to the quantity of amyloid fibrils. Fibril formation of Aβ can be followed in real time by measuring the ThT fluorescence. Therefore, the inhibitory effects of the D-peptides DB1 to DB5 and D3 were investigated by co-incubating these peptides with Aβ(1–42) and performing the ThT assay. Fluorescence emission data were compared after 5 h incubation, because after this period the Aβ(1–42) control (without added peptide) reached its fluorescence maximum. […] 20 μM Aβ(1–42) was mixed with 20 μM DB1 to DB5 or 10 μM DB3DB3 and the ThT fluorescence was monitored. Aβ(1–42) without peptide addition was taken as the control. The ThT fluorescence of all samples were compared after 5 h, where the control, Aβ(1–42) only, reached its maximum in fluorescence emission. The Mann-Whitney-U-test was used for statistical analysis. * p < 0.05; ** p < 0.01; *** p < 0.001.

The target in series [2] is T1, Aβ(1–42). In words: Aβ aggregation inhibition ELISA. Format: biochemical. The conditions noted are these: 400 nM Aβ(1–42), 500 mM Tris pH 7.4, 23 h, 37°C, aggregate-specific ELISA, logistic fit, three independent experiments; read-out: EC50 of inhibition of Aβ aggregate formation. As to the method:
Freshly dissolved monomeric Aβ(1–42) (400 nM in 500 mM Tris-buffer pH 7.4) was incubated with and without DB peptides in different concentrations (0.01, 0.05, 0.1, 0.5, 1, 5, 10, 50 and 100 μM for DB3 or half of the molar concentrations in case of DB3DB3) in a humidity chamber for 23 h at 37°C. The aggregation was analyzed by an enzyme-linked immunosorbent assay (ELISA). NP27 antibody in bicarbonate/carbonate buffer was used to coat the ELISA plate overnight. Then the plate was washed in PBS-Tween buffer (1x PBS + 0.05% Tween) and blocked for 2 h at room temperature with 5% casein buffer. After washing, Aβ aggregate solutions were added to the plate and incubated for 1 h at room temperature. The plate was washed again and bound Aβ aggregates were detected by biotinylated 6E10/HRP-avidin mediated immunoreaction (BioLegend, San Diego, CA USA) using TMB as detection reagent. […] Mean value and standard error were calculated from three independent experiments. EC50 was calculated by fitting the data to a logistic dose response function.
Fig 5 Inhibition of Aβ fibril formation and Aβ aggregation disassemble by DB3 and DB3DB3. A) Monomeric Aβ(1–42) (400 nM) was mixed with different concentrations of DB3 (0.01, 0.05, 0.1, 0.5, 1, 5, 10, 50, 100 μM) and the aggregation state of Aβ was analyzed using an Aβ aggregate specific ELISA. […] All data were determined in triplicate. […]

The target of series [3] is T2, preformed Aβ(1–42) aggregates (Homo sapiens, UniProt P05067).
T2 construct: Aβ(1–42), N-terminally biotinylated Aβ(1–42) and FITC-Aβ(1–42) were purchased from Bachem; purchased Bachem (Heidelberg, Germany)
T2 sequence (P05067 672-713 limits assumed): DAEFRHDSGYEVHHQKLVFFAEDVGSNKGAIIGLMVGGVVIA
In words: Aβ aggregate disassembly ELISA. Type of series: biochemical. The conditions noted are these: 400 nM Aβ(1–42) preincubated 22 h at 37°C, then with peptide 22 h (24 h) at 37°C, ELISA, triplicate. The method, then: Freshly dissolved monomeric Aβ(1–42) (400 nM in 500 mM Tris-buffer pH 7.4) was incubated in a humidity chamber for 22 h at 37°C in order to preform Aβ(1–42) aggregates. These preformed aggregates were coincubated with D-peptide in different concentrations (0.01, 0.05, 0.1, 0.5, 1, 5, 10, 50, 100 μM for DB3 or with half of the molar concentrations in case of DB3DB3) for additional 22 h at 37°C. The content of Aβ aggregates was measured and evaluated in the same way as the aggregation inhibition ELISA.
Fig 5 Inhibition of Aβ fibril formation and Aβ aggregation disassemble by DB3 and DB3DB3. A) Monomeric Aβ(1–42) (400 nM) was mixed with different concentrations of DB3 (0.01, 0.05, 0.1, 0.5, 1, 5, 10, 50, 100 μM) and the aggregation state of Aβ was analyzed using an Aβ aggregate specific ELISA. For DB3DB3 half of the molar concentrations compared to DB3 were used. Aβ without DB3 and DB3DB3 addition was taken as control. For DB3 an EC50 of 6 μM was calculated using a logistic fit model. DB3DB3 inhibited the formation of Aβ fibrils more efficiently with an EC50 of 7 nM. B) The disassembly properties of DB3 and DB3DB3 were measured using an Aβ aggregation specific ELISA. Monomeric Aβ(1–42) (400 nM) was preincubated in order to form fibrils and mixed with nine different concentrations of DB3 (0.01, 0.05, 0.1, 0.5, 1, 5, 10, 50, 100 μM). For DB3DB3, the molar concentrations were half those used for DB3. […] DB3DB3 disassembled Aβ aggregates at the lowest concentration […]. Thus, the EC50 could not be determined, but is < 10 nM. All data were determined in triplicate. The Mann-Whitney-U-test was performed for statistical analysis. * p< 0.05; ** p < 0.01; *** p < 0.001
The Aβ aggregate disassembly ELISA was used to analyze the effect of DB3 and DB3DB3 on preformed Aβ aggregates (Fig 5B). […] The Aβ aggregates specific ELISA was used to quantify Aβ aggregates. […] The results of measured Aβ aggregates normalized to the Aβ control were plotted against the peptide concentration. The EC50 was calculated by a logarithmic dose response function.

T1 sequence (P05067 672-713 limits assumed): as above
Experimental for PC12 cells: Rat pheochromocytoma PC12 cells (Leibniz Institute DSMZ, Braunschweig, Germany) were cultivated in DMEM medium supplemented with 10% fetal bovine serum and 5% horse serum. 10,000 cells per well were seeded on collagen-coated 96 well plates (Gibco, Life technology, Carlsberg, USA) and incubated in a 95% humidified atmosphere with 5% CO2 at 37°C for 24 h. […] DB peptide was then added at different concentrations and incubated for further 40 min at 21°C and 600 rpm agitation before addition to the PC12 cells. […] Cell viability was then measured using the Cell proliferation Kit I (MTT) (Roche, Basel, Switzerland) according to the manufacturer’s instruction. The absorbance of the formazan product was determined by measuring at 570 nm after subtracting the absorption at 660 nm. For absorption measurements, a Polarstar Optima plate reader (BMG, Offenburg, Germany) was used. All results were normalized to cells that were treated with buffer only.
The cell viability assay was performed using PC12 cells in a MTT test. […] The absorption of buffer treated cells was set to 100% cell viability. […] The Mann-Whitney-U-test was used for statistical analysis. * p < 0.05; ** p < 0.01; *** p < 0.001.

As for `CC[C@@H](C)[C@@H](NC(=O)[C@H]1CCCN1C(=O)[C@H](N)CCCNC(=N)N)C(=O)N[C@@H](C(=O)N[C@H](CCCNC(=N)N)C(=O)N[C@H](CC(C)C)C(=O)N[C@H](CCCNC(=N)N)C(=O)N[C@@H](C(=O)N[C@H](Cc1c[nH]cn1)C(=O)N[C@H](CCC(N)=O)C(=O)N[C@H](CC(N)=O)C(=O)N[C@H](CCCNC(=N)N)C(N)=O)[C@H](C)O)[C@H](C)O` [DB3] (H-[dR][dP][dI][dT][dR][dL][dR][dT][dH][dQ][dN][dR]-NH2), in the series on PC12 cells, the “effect of peptide alone on PC12 cell viability” value is “not toxic”. For the same compound, the inhibition at 31 µg/mL on Aβ(1–42) [1] was found to be 80%. The figures for the EC50 (at Aβ(1–42) [2]; in series [3]) were 6 µM and 2.5 µM, respectively.

In general, inhibition refers to the change of the read-out against control, counted positive when it falls. The term EC50 denotes the concentration that produces a half-maximal response.
